These results are taken from ChEMBL document CHEMBL5724914, “Linking interpersonal differences in gut microbiota composition and drug biotransformation activity” (2024).

The conditions of data set [1]: human gut metagenome, 24 h, 2 µM.
For data set [2] the following is noted: human gut metagenome, 24 h, 2 µM. The source holds these as a separate data set.
Data set [3] in a line: The drug is tested on Z-004 corresponding to metagenome with ENA study accession number: PRJEB37062 and ENA sample accession number: ERS12561804 for biotransformation under anaerobic condition. The drug concentrations were measured over 9 timepoints collected between 0 and 24 hours of incubation by liquid-chromatography-coupled mass spectrometry (LC–MS). The settings on record: 2 µM.

The nature of data set [4]: The drug is tested on Z-016 corresponding to mouse gut metagenome with ENA study accession number: PRJEB37062 and ENA sample accession number: ERS12561815 for biotransformation under anaerobic condition. The drug concentrations were measured over 9 timepoints collected between 0 and 24 hours of incubation by liquid-chromatography-coupled mass spectrometry (LC–MS). To be noted: 2 µM.

For data set [5] the following is noted: human gut metagenome, 24 h, 2 µM. This is another data set of the same source.
The nature of data set [6]: The drug is tested on WLS-039 corresponding to human gut metagenome with ENA study accession number: PRJEB37062 and ENA sample accession number: ERS12561746 for biotransformation under anaerobic condition. The drug concentrations were measured over 9 timepoints collected between 0 and 24 hours of incubation by liquid-chromatography-coupled mass spectrometry (LC–MS). The settings on record: 2 µM.

For data set [7] the following is noted: human gut metagenome, 24 h, 2 µM. The source holds these as a separate data set.
Data set [8] in a line: The drug is tested on Z-022 corresponding to mouse gut metagenome with ENA study accession number: PRJEB37062 and ENA sample accession number: ERS12561821 for biotransformation under anaerobic condition. The drug concentrations were measured over 9 timepoints collected between 0 and 24 hours of incubation by liquid-chromatography-coupled mass spectrometry (LC–MS). The settings on record: 2 µM.

A short description of data set [9]: The drug is tested on Z-011 corresponding to mouse gut metagenome with ENA study accession number: PRJEB37062 and ENA sample accession number: ERS12561811 for biotransformation under anaerobic condition. The drug concentrations were measured over 9 timepoints collected between 0 and 24 hours of incubation by liquid-chromatography-coupled mass spectrometry (LC–MS). The settings on record: 2 µM.
Also: call rule not given here.

With `CO[C@]12C[C@@H](COC(=O)c3cncc(Br)c3)CN(C)[C@@H]1Cc1cn(C)c3cccc2c13` [NICERGOLINE], the “Bacterial Biotransformation” value in data set [1] was “Compound NOT metabolized”; in [2] it was “Compound NOT metabolized”; in [3], “Compound metabolized”; in [4], “Compound metabolized”; in [5] it was “Compound NOT metabolized”; in data set [6], “Compound metabolized”. Also, the “Bacterial Biotransformation” value in [7] is given as “Compound NOT metabolized”; in [8] it was “Compound metabolized”; in data set [9], “Compound metabolized”.

As for `COc1ccc2c(c1OC)C(=O)O[C@@H]2[C@H]1c2c(cc3c(c2OC)OCO3)CCN1C` [NOSCAPINE], the “Bacterial Biotransformation” value in data set [1] is reported as “Compound NOT metabolized”; in data set [2], “Compound NOT metabolized”; in data set [3] it was “Compound NOT metabolized”; in data set [4] it was “Compound metabolized”; in [5], “Compound NOT metabolized”; in data set [6], “Compound NOT metabolized”. Moreover, the “Bacterial Biotransformation” value was “Compound NOT metabolized” in data set [7], “Compound metabolized” in data set [8] and “Compound metabolized” in data set [9].

As for `CCCc1nc(C(C)(C)O)c(C(=O)OCc2oc(=O)oc2C)n1Cc1ccc(-c2ccccc2-c2nnn[nH]2)cc1` [OLMESARTAN MEDOXOMIL], the “Bacterial Biotransformation” value in [1], in data set [2], in [3], in [4], in [5] and in data set [6] was “Compound metabolized” in each case. In addition, the “Bacterial Biotransformation” value in data set [7] is reported as “Compound metabolized”; in data set [8], “Compound metabolized”; in data set [9], “Compound NOT metabolized”.

For the compound `NC(=O)N1c2ccccc2CC(=O)c2ccccc21` [OXCARBAZEPINE], the “Bacterial Biotransformation” value in data set [1] is given as “Compound NOT metabolized”; in data set [2], “Compound NOT metabolized”; in data set [3], “Compound metabolized”; in [4] it was “Compound NOT metabolized”; in [5], “Compound metabolized”; in data set [6], “Compound NOT metabolized”. For the same compound, the “Bacterial Biotransformation” value was “Compound NOT metabolized” in data set [7], “Compound metabolized” in data set [8] and “Compound NOT metabolized” in [9].

Regarding `CCN(CC)CC#CCOC(=O)C(O)(c1ccccc1)C1CCCCC1.Cl` (stereo unspecified) [OXYBUTYNIN CHLORIDE], the “Bacterial Biotransformation” value in data set [1] is “Compound metabolized”; in data set [2], “Compound metabolized”; in data set [3], “Compound metabolized”; in data set [4], “Compound NOT metabolized”; in [5] it was “Compound metabolized”; in [6] it was “Compound metabolized”. Also, the results for the “Bacterial Biotransformation” value in data set [7], in data set [8] and in data set [9] were “Compound metabolized”, “Compound metabolized” and “Compound NOT metabolized”, respectively.

On to `Fc1ccc([C@@H]2CCNC[C@H]2COc2ccc3c(c2)OCO3)cc1` [PAROXETINE], for which the “Bacterial Biotransformation” value in data set [1] is “Compound NOT metabolized”; in data set [2], “Compound NOT metabolized”; in [3], “Compound NOT metabolized”; in data set [4] it was “Compound NOT metabolized”; in [5] it was “Compound metabolized”; in data set [6] it was “Compound metabolized”. Further, the results for the “Bacterial Biotransformation” value in [7], in [8] and in data set [9] were “Compound metabolized”, “Compound metabolized” and “Compound NOT metabolized”, respectively.

For `O=c1[nH]c2ccccc2n1C1CCN(CCCC(c2ccc(F)cc2)c2ccc(F)cc2)CC1` [PIMOZIDE], the “Bacterial Biotransformation” value was “Compound metabolized” in [1]; “Compound NOT metabolized” in data set [2]; “Compound NOT metabolized” in [3]; “Compound metabolized” in data set [4]; “Compound metabolized” in [5]; “Compound NOT metabolized” in data set [6]. For the same compound, the “Bacterial Biotransformation” value is listed as “Compound metabolized” in [7], “Compound NOT metabolized” in data set [8] and “Compound metabolized” in data set [9].

With `COc1cc2nc(N3CCN(C(=O)c4ccco4)CC3)nc(N)c2cc1OC` [PRAZOSIN], the “Bacterial Biotransformation” value in [1], in data set [2], in data set [3], in data set [4], in data set [5] and in data set [6] was “Compound NOT metabolized” in each case. Besides, the “Bacterial Biotransformation” value in data set [7] is “Compound metabolized”; in data set [8], “Compound NOT metabolized”; in [9], “Compound NOT metabolized”.

As to `CS(=O)(=O)O.OC(CCN1CCCCC1)(c1ccccc1)c1ccccc1` [PRIDINOL METHANESULFONATE], the “Bacterial Biotransformation” value in [1], in data set [2], in data set [3], in data set [4], in data set [5] and in data set [6] was “Compound NOT metabolized” throughout. Moreover, the “Bacterial Biotransformation” value in data set [7] is reported as “Compound metabolized”; in [8], “Compound NOT metabolized”; in data set [9], “Compound NOT metabolized”.

In the case of `CC(CN1c2ccccc2Sc2ccccc21)N(C)C` (stereo unspecified) [PROMETHAZINE], the “Bacterial Biotransformation” value in [1] is given as “Compound NOT metabolized”; in data set [2] it was “Compound NOT metabolized”; in data set [3] it was “Compound NOT metabolized”; in data set [4], “Compound NOT metabolized”; in [5], “Compound NOT metabolized”; in [6], “Compound metabolized”. The “Bacterial Biotransformation” value in data set [7], in data set [8] and in data set [9] was “Compound NOT metabolized” in each case.

For the compound `OCCOCCN1CCN(C2=Nc3ccccc3Sc3ccccc32)CC1` [QUETIAPINE], the “Bacterial Biotransformation” value in [1] is listed as “Compound NOT metabolized”; in [2] it was “Compound NOT metabolized”; in data set [3] it was “Compound metabolized”; in data set [4] it was “Compound NOT metabolized”; in data set [5], “Compound metabolized”; in [6], “Compound NOT metabolized”. In addition, the “Bacterial Biotransformation” value is on record as “Compound metabolized” in [7], “Compound NOT metabolized” in data set [8] and “Compound NOT metabolized” in [9].

`CCC(=O)NCC[C@@H]1CCc2ccc3c(c21)CCO3` [RAMELTEON]: the “Bacterial Biotransformation” value in data set [1], in data set [2], in data set [3], in data set [4], in [5] and in [6] was “Compound metabolized” in each case. Moreover, the results for the “Bacterial Biotransformation” value in data set [7], in data set [8] and in data set [9] were “Compound metabolized”, “Compound metabolized” and “Compound NOT metabolized”, respectively.

As for `CNC(=C[N+](=O)[O-])NCCSCc1ccc(CN(C)C)o1` [RANITIDINE], the “Bacterial Biotransformation” value in data set [1] was “Compound metabolized”; in data set [2] it was “Compound metabolized”; in [3], “Compound metabolized”; in data set [4], “Compound metabolized”; in [5] it was “Compound NOT metabolized”; in data set [6], “Compound NOT metabolized”. The “Bacterial Biotransformation” value in data set [7], in [8] and in data set [9] was “Compound metabolized” in each case.

`COC(=O)[C@H]1[C@H]2C[C@@H]3c4[nH]c5cc(OC)ccc5c4CCN3C[C@H]2C[C@@H](OC(=O)c2cc(OC)c(OC)c(OC)c2)[C@@H]1OC` [RESERPINE]: the “Bacterial Biotransformation” value in data set [1] is recorded as “Compound NOT metabolized”; in data set [2], “Compound NOT metabolized”; in data set [3], “Compound NOT metabolized”; in data set [4] it was “Compound NOT metabolized”; in data set [5], “Compound metabolized”; in [6], “Compound metabolized”. In addition, the “Bacterial Biotransformation” value in data set [7] was “Compound metabolized”; in [8], “Compound metabolized”; in data set [9] it was “Compound NOT metabolized”.
